# Laboratory results published in patent US8653064B2, “Crystalline forms of sodium 4-{[9-chloro-7-(2-fluoro-6-methoxyphenyl)-5H-pyrimido[5,4-D][2]benzazepin-2-yl]amino}-2-methoxybenzoate” (Millennium Pharmaceuticals, Inc., priority 2010, dated 2014).
# How the values were obtained:
# Solubility in water = type: physicochemical
# [1] = Gravimetric vapor sorption (GVS); type: physicochemical; settings: between 0-90% RH, 10% RH intervals, 25° C.
structure (smiles),measurement,setting,value
"COc1cc(Nc2ncc3c(n2)-c2ccc(Cl)cc2C(c2c(F)cccc2OC)=NC3)ccc1C(=O)O [free acid, 4-{[9-chloro-7-(2-fluoro-6-methoxyphenyl)-5H-pyrimido[5,4-d][2]benzazepin-2-yl]amino}-2-methoxybenzoic acid]",solubility in water,Solubility in water,about 10 μg/mL
"COc1cc(Nc2ncc3c(n2)-c2ccc(Cl)cc2C(c2c(F)cccc2OC)=NC3)ccc1C(=O)O [Form 2, sodium 4-{[9-chloro-7-(2-fluoro-6-methoxyphenyl)-5H-pyrimido[5,4-d][2]benzazepin-2-yl]amino}-2-methoxybenzoate Form 2]",solubility in water,Solubility in water,about 8 mg/mL
"COc1cc(Nc2ncc3c(n2)-c2ccc(Cl)cc2C(c2c(F)cccc2OC)=NC3)ccc1C(=O)O [Form 6, sodium 4-{[9-chloro-7-(2-fluoro-6-methoxyphenyl)-5H-pyrimido[5,4-d][2]benzazepin-2-yl]amino}-2-methoxybenzoate Form 6]",solubility in water,Solubility in water,greater than 10 mg/mL
same,uptake (change in weight of the sample) in GVS,[1],6%
"COc1cc(Nc2ncc3c(n2)-c2ccc(Cl)cc2C(c2c(F)cccc2OC)=NC3)ccc1C(=O)O [Form 24, sodium 4-{[9-chloro-7-(2-fluoro-6-methoxyphenyl)-5H-pyrimido[5,4-d][2]benzazepin-2-yl]amino}-2-methoxybenzoate Form 24]",solubility in water,Solubility in water,about 8 mg/mL
